Common to all, as to type: cell-based, human
For one assay, the system named is PDGFRB promoter. Description: ChIP-qPCR, binding of p65 to the PDGFRB promoter. Particulars: IL-15-stimulated NK cells (1 h); not in resting NK cells. On the procedure:
FIGS. 2A-2I. IL-15-induced PDGFRβ expression is mediated by PI3K/AKT signaling. (A-B) Primary NK cells were treated with IL-15 (10 ng/ml) for the indicated times. mRNA levels of PDGFRB at different time points (A) (n=3) or at 1 h (B) (n=10) were examined by qPCR. (C-D) Primary NK cells were pretreated with actinomycin D (ActD, 5., g/ml) (C) or cycloheximide (CHX, 20 μg/ml) (D) for 1 h, washed twice with RPMI-1640, and then treated with IL-15 (10 ng/ml) for 24 h. DMSO was used as a control. Expression levels of PDGFRβ were examined by flow cytometry (n=5). Data shown are representative histograms and percentage of inhibition with the equation: % inhibition=[…]. (E) Primary NK cells were pretreated with wortmannin (1 μM), afuresertib (10 μM), TPCA-1 (1 μM), rapamycin (10 μM), torin1 (10 μM), decernotinib (10 μM), C118-9 (10 μM), STAT5-IN-1 (10 μM), AZD6244 (10 μM), or CI-1040 (10 μM) for 1 h, washed twice with RPMI 1640, and then treated with IL-15 (10 ng/ml) for 24 h. DMSO was used as control. Data shown are % of inhibition (n=5). The mean value of the inhibitory rate is shown. […] (G-I) Binding of p65 to the PDGFRB promoter in IL-15-treated NK cells (G) or resting NK cells (H) as determined by ChIP-qPCR or PCR (I) (n=3). […]
Primary NK cells were treated with IL-15 for 1 h. […] The enriched chromatin was analyzed by qPCR using the following primers: […]
For orientation: Real-time PCR tracks product formation cycle by cycle.

The subject of a further assay is PDGF-D. As to the kind of experiment: PDGF-D expression in NK cells (qPCR, flow cytometry, immunoblotting, ELISA). On the procedure:
FIGS. 5A-5J. IL-15 induces PDGF-D expression in an autocrine manner. (A) mRNA levels of PDGFA, PDGFB, PDGFC, and PDGF-D in T cells, B cells, and NK cells were analyzed using the BioGPS online tool. (B) mRNA levels of PDGFA, PDGFB, PDGFC, and PDGF-D in T cells, B cells, and NK cells were examined by qPCR (n=10). (C) Primary NK cells were treated with IL-15 (10 ng/ml) for the indicated times. mRNA levels of PDGF-D were examined by qPCR (n=3). (D-E) Representative dot plots and percentages of PDGF-D levels in NK cells after IL-15 (50 ng/ml) treatment for 24 h. Resting NK cells were used as control (n=5). […] (I-J) Binding of p65 to the PDGF-D promoter in IL-15 treated (I) or resting NK cells (J) as determined by ChIP-qPCR (n=3). Data represent three independent experiments. Data shown are means±SD. […]
Cells were stained with the indicated cell-surface markers and/or fixed/permeabilized using a Fixation/Permeabilization Kit (eBioscience). […] Data were analyzed using NovoExpress software (Agilent Technologies).
(§1) RNA was isolated using an RNeasy Mini Kit (QIAGEN) and reversely transcribed to cDNA with a PrimeScript RT Reagent Kit with gDNA Eraser (Takara Bio) according to the manufacturer's protocol. mRNA expression levels were analyzed using SYBR Green qPCR Master Mix and a QuantStudio 12K Flex Real-Time PCR System (both from Thermo Fisher Scientific). […]

For a further assay, the system named is PDGFRB. Description: PDGFRB mRNA levels by qPCR. Particulars: primary NK cells, IL-15 10 ng/ml. How it is done:
FIGS. 2A-2I. IL-15-induced PDGFRβ expression is mediated by PI3K/AKT signaling. (A-B) Primary NK cells were treated with IL-15 (10 ng/ml) for the indicated times. mRNA levels of PDGFRB at different time points (A) (n=3) or at 1 h (B) (n=10) were examined by qPCR. (C-D) Primary NK cells were pretreated with actinomycin D (ActD, 5., g/ml) (C) or cycloheximide (CHX, 20 μg/ml) (D) for 1 h, washed twice with RPMI-1640, and then treated with IL-15 (10 ng/ml) for 24 h. DMSO was used as a control. Expression levels of PDGFRβ were examined by flow cytometry (n=5). Data shown are representative histograms and percentage of inhibition with the equation: % inhibition=100×[1−(DMSO-inhibitor)/DMSO]. […] (G-I) Binding of p65 to the PDGFRB promoter in IL-15-treated NK cells (G) or resting NK cells (H) as determined by ChIP-qPCR or PCR (I) (n=3). […]
as §1

As to “IL-15: recombinant human IL-15 (200-15); recombinant murine IL-15 in the mouse NK cell test”, the “p65 associated with the PDGFRB promoter versus normal IgG control” value in the assay on PDGFRB promoter was “significantly higher levels”. In the assay with PDGF-D (IL-15 10 ng/ml, qPCR), the “mRNA levels of PDGF-D in NK cells” value is recorded as “significantly increased”. The “protein levels of PDGF-D in NK cells” value in the assay on PDGF-D (IL-15 50 ng/ml 24 h, flow cytometry, immunoblotting, ELISA) is “significantly increased”. Moreover, the “mRNA levels of the PDGFRB gene” value with PDGFRB is “increased significantly”.
